Patent US20160280743A1, “BACTERIAL MUTANTS AND METHODS OF USE” (priority 2015, published 2016)
≈ marks a conversion by molar mass, not a printed value. Where two headings read alike, the source gives them in different places.

Tests used:
[1] = tested on: E. coli WT, WT-Pore, ΔTolC, ΔTolC-Pore; assay type: cell-based, Escherichia coli; settings: E. coli
[2] = tested on: P. aeruginosa PAO1, PAO1-Pore, Δ3, Δ3-Pore; assay: Fold MIC change between P. aeruginosa strains (OM barrier, efflux); assay type: cell-based, Pseudomonas aeruginosa; settings: for Fold MIC change, Efflux, PAO1-Pore/Δ3-Pore / Fold MIC change, Efflux, PAO1/Δ3 / Fold MIC change, OM barrier, PAO1/PAO1-Pore / Fold MIC change, OM barrier, Δ3/Δ3-Pore: P. aeruginosa
E. coli WT = assay: Vancomycin disc susceptibility assay, E. coli WT; assay type: cell-based; settings: Escherichia coli, 100 μg vancomycin disc, read-out: Zone of clearance
Experimental: (§1) Vancomycin susceptibility spot assay. Indicated E. coli (A) and P. aeruginosa (B) strains were seeded onto LB agar plates, ˜10^8 cells per plate, with and without inducers 0.1% arabinose and 0.1 mM IPTG, respectively. […] Seeded plates were incubated overnight at 37° C. Large clearance zones can be clearly seen in the presence of inducers.

E. coli WT-Pore = assay: Vancomycin disc susceptibility assay, E. coli WT-Pore; assay type: cell-based; settings: Escherichia coli, read-out: Zone of clearance, E. coli WT-Pore, 100 μg vancomycin disc
Experimental: as §1

E. coli ΔTolC = assay: Vancomycin disc susceptibility assay, E. coli ΔTolC; assay type: cell-based; settings: Escherichia coli, read-out: Zone of clearance, E. coli ΔTolC, 100 μg vancomycin disc
Experimental: as §1

E. coli ΔTolC-Pore = assay: Vancomycin disc susceptibility assay, E. coli ΔTolC-Pore; assay type: cell-based; settings: Escherichia coli, read-out: Zone of clearance, E. coli ΔTolC-Pore, 100 μg vancomycin disc
Experimental: (§2) Vancomycin susceptibility spot assay. […] […] Seeded plates were incubated overnight at 37° C. Large clearance zones can be clearly seen in the presence of inducers.

P. aeruginosa PAO1 [3] = assay: Vancomycin disc susceptibility assay, P. aeruginosa PAO1; assay type: cell-based; settings: Pseudomonas aeruginosa, 200 μg vancomycin disc, read-out: Zone of clearance
Experimental: as §2

P. aeruginosa PAO1-Pore = assay: Vancomycin disc susceptibility assay, P. aeruginosa PAO1-Pore; assay type: cell-based; settings: Pseudomonas aeruginosa, 200 μg vancomycin disc, read-out: Zone of clearance
Experimental: as §1

P. aeruginosa Δ3 = assay: Vancomycin disc susceptibility assay, P. aeruginosa Δ3; assay type: cell-based; settings: Pseudomonas aeruginosa, 200 μg vancomycin disc, read-out: Zone of clearance
Experimental: as §1

P. aeruginosa Δ3-Pore = assay: Vancomycin disc susceptibility assay, P. aeruginosa Δ3-Pore; assay type: cell-based; settings: Pseudomonas aeruginosa, 200 μg vancomycin disc, read-out: Zone of clearance
Experimental: as §1

E. coli GD102 (ΔTolC) = settings: E. coli ΔTolC without pore; 0.1% arabinose; LB, 37° C., 16 h
Experimental: (§3) Susceptibilities of E. coli and P. aeruginosa cells to different classes of antibiotics were determined by two-fold broth dilution method [1] with following modifications. Cells were grown in Luria-Bertani (LB) broth (tryptone 10 g/L, yeast extract 5 g/L and NaCl 5 g/L) with appropriate selection markers as needed, at 37° C. with shaking at 200 rpm. When needed, at OD600˜0.3, either L-arabinose (final concentration 0.1%) or IPTG (final concentration 0.1 mM) were added to induce the expression of the pore and cells were further incubated until OD600 reached 1.0. MICs of various antimicrobial agents were measured in 96-well micro-titer plates. For this purpose, exponentially growing cells were inoculated at a density of 10^5 cells/ml into wells containing LB medium in the presence of two-fold increasing concentrations of drugs under investigation at constant inducer concentration of 0.1% arabinose for E. coli or 0.1 mM IPTG for P. aeruginosa strains. Cell growth was determined visually or using Spark 10M microplate reader (Tecan) after incubation of the micro-titer plates at 37° C. for 16 h.
(§4) For this purpose, induced cells were dispensed into 96-well microplates with LB medium containing two-fold dilutions of an antibiotic of interest and a respective concentration of an inducer.

[4] = tested on: E. coli ΔTolC-Pore (GKCW103, FhuAΔC/Δ4L pore); settings: 0.1% arabinose, LB, 37° C., 16 h
Experimental: as §3, §4

[5] = tested on: P. aeruginosa PAO1Δ3 (Δ3); settings: P. aeruginosa Δ3 without pore; 0.1 mM IPTG; LB, 37° C., 16 h
Experimental: as §3, §4

E. coli BW 25113 (WT) = assay: microbe, parasite or virus in culture; settings: Escherichia coli, 16 h, read-out: MIC BW 25113 (WT) —
Experimental: as §3, §4

[6] = tested on: E. coli WT-Pore (GKCW101, FhuAΔC/Δ4L pore); assay: microbe, parasite or virus in culture; settings: Escherichia coli, 16 h, read-out: MIC BW 25113 (WT) Pore
Experimental: as §3, §4

P. aeruginosa PAO1 [7] = assay: microbe, parasite or virus in culture; settings: Pseudomonas aeruginosa
Experimental: as §3, §4

[8] = tested on: P. aeruginosa Δ3-Pore (GKCW116, FhuAΔC/Δ4L pore); assay: MIC, two-fold broth dilution, P. aeruginosa Δ3-Pore; settings: for MIC Δ3 Pore: P. aeruginosa Δ3-Pore, 0.1 mM IPTG, LB, 37° C., 16 h
Experimental: as §3, §4

[9] = tested on: P. aeruginosa PAO1, PAO1-Pore, Δ3, Δ3-Pore cells; assay: Azithromycin uptake into P. aeruginosa cells by LC-MS; settings: 5 μM; 0.1 mM IPTG; LC-MS (FIG. 5C)
Experimental: For LC-MS analyses, P. aeruginosa cells were grown to stationary phase in 50 mM MOPS (pH 7.2) M9 minimal medium supplemented with 1% glycerol and trace ions at 37° C. Stationary phase cells were subcultured 1:100 for 16 hours in the same fresh medium at 37° C. After 16 hours, cultures were induced with 0.1 mM IPTG for 4 hours at 37° C. Cells were collected by centrifugation at room temperature and resuspended in PMG buffer at one-tenth the original culture volume. […] At appropriate time points, 100 μl of cells were removed and collected onto filter plates using a HTS Vacuum Manifold (EMD Millipore). Filters were dried overnight and extracted in a two-step process using 1) 800 μl of 100% HPLC grade methanol and 2) 200 μl of 80% HPLC methanol: 20% ultrapure water. […] For HPLC, two mobile phases (A—100% water, B—100% acetonitrile; both with 0.1% formic acid) were used with a step gradient of 20, 50 and 100% of B for 1, 4, and 11 min, respectively.

[10] = PAO1, 16 h, read-out: MIC PAO1 —

CN[C@H](CC(C)C)C(=O)N[C@H]1C(=O)N[C@@H](CC(N)=O)C(=O)N[C@H]2C(=O)N[C@H]3C(=O)N[C@H](C(=O)N[C@H](C(=O)O)c4cc(O)cc(O)c4-c4cc3ccc4O)[C@H](O)c3ccc(c(Cl)c3)Oc3cc2cc(c3O[C@@H]2O[C@H](CO)[C@@H](O)[C@H](O)[C@H]2O[C@H]2C[C@](C)(N)[C@H](O)[C@H](C)O2)Oc2ccc(cc2Cl)[C@H]1O [Vancomycin]
Fold MIC change, Efflux, WT-Pore/ΔTolC-Pore [1]: 2 fold | Fold MIC change, Efflux, WT/ΔTolC [1]: 0.5 fold | Fold MIC change, OM barrier, WT/WT-Pore [1]: 16 fold | Fold MIC change, OM barrier, ΔTolC/ΔTolC-Pore [1]: 64 fold | Fold MIC change, Efflux, PAO1-Pore/Δ3-Pore [2]: 2 fold | Fold MIC change, Efflux, PAO1/Δ3 [2]: 2 fold | Fold MIC change, OM barrier, PAO1/PAO1-Pore [2]: 16 fold | Fold MIC change, OM barrier, Δ3/Δ3-Pore [2]: 16 fold | zone of inhibition at 100 µg/disc (E. coli WT; Arabinose (0.1%)): 6 mm | zone of inhibition at 100 µg/disc (E. coli WT; IPTG (0.1 mM)): 6 mm | zone of inhibition at 100 µg/disc (E. coli WT; No inducer): 5 mm | zone of inhibition at 100 µg/disc (E. coli WT-Pore; Arabinose (0.1%)): 16 mm | zone of inhibition at 100 µg/disc (E. coli WT-Pore; IPTG (0.1 mM)): 11 mm | zone of inhibition at 100 µg/disc (E. coli WT-Pore; No inducer): 8 mm | zone of inhibition at 100 µg/disc (E. coli ΔTolC; Arabinose (0.1%)): 6 mm | zone of inhibition at 100 µg/disc (E. coli ΔTolC; IPTG (0.1 mM)): 5 mm | zone of inhibition at 100 µg/disc (E. coli ΔTolC; No inducer): 5 mm | zone of inhibition at 100 µg/disc (E. coli ΔTolC-Pore; Arabinose (0.1%)): 15 mm | zone of inhibition at 100 µg/disc (E. coli ΔTolC-Pore; IPTG (0.1 mM)): 16 mm | zone of inhibition at 100 µg/disc (E. coli ΔTolC-Pore; No inducer): 7 mm | zone of inhibition at 200 µg/disc (P. aeruginosa PAO1 [3]; Arabinose (0.1%)): 12 mm | zone of inhibition at 200 µg/disc (P. aeruginosa PAO1 [3]; IPTG (0.1 mM)): 10 mm | zone of inhibition at 200 µg/disc (P. aeruginosa PAO1 [3]; No inducer): 11 mm | zone of inhibition at 200 µg/disc (P. aeruginosa PAO1-Pore; Arabinose (0.1%)): 21 mm | zone of inhibition at 200 µg/disc (P. aeruginosa PAO1-Pore; IPTG (0.1 mM)): 19 mm | zone of inhibition at 200 µg/disc (P. aeruginosa Δ3; Arabinose (0.1%)): 12 mm | zone of inhibition at 200 µg/disc (P. aeruginosa Δ3; IPTG (0.1 mM)): 9 mm | zone of inhibition at 200 µg/disc (P. aeruginosa Δ3; No inducer): 10 mm | zone of inhibition at 200 µg/disc (P. aeruginosa Δ3-Pore; Arabinose (0.1%)): 22 mm | zone of inhibition at 200 µg/disc (P. aeruginosa Δ3-Pore; IPTG (0.1 mM)): 18 mm | zone of inhibition at 200 µg/disc (P. aeruginosa Δ3-Pore; No inducer): 12 mm | MIC GD102 (ΔTolC) — (E. coli GD102 (ΔTolC)): 256 µg/mL (≈ 177 µM) | MIC GD102 (ΔTolC) Pore [4]: 4 µg/mL (≈ 2.76 µM) | MIC Δ3 — [5]: 1024 µg/mL (≈ 707 µM) | MIC (E. coli BW 25113 (WT)): 128 µg/mL (≈ 88.3 µM) | MIC [6]: 8 µg/mL (≈ 5.52 µM) | MIC (P. aeruginosa PAO1 [7]; [10]): 2050 µg/mL | MIC Δ3 Pore [8]: 64 µg/mL (≈ 44.2 µM)

CC[C@H]1OC(=O)[C@H](C)[C@@H](O[C@H]2C[C@@](C)(OC)[C@@H](O)[C@H](C)O2)[C@H](C)[C@@H](O[C@@H]2O[C@H](C)C[C@H](N(C)C)[C@H]2O)[C@](C)(O)C[C@@H](C)CN(C)[C@H](C)[C@@H](O)[C@]1(C)O [Azithromycin]
Fold MIC change, Efflux, WT-Pore/ΔTolC-Pore [1]: 16 fold | Fold MIC change, Efflux, WT/ΔTolC [1]: 4 fold | Fold MIC change, OM barrier, WT/WT-Pore [1]: 4 fold | Fold MIC change, OM barrier, ΔTolC/ΔTolC-Pore [1]: 16 fold | Decrease of MIC from PAO1 cells to induced Δ3-Pore cells ([2]; FIG. 5B): more than 2000 fold | Drop in MIC in PAO1-Pore cells with increasing inducer ([2]; IPTG (FIG. 5)): 32 fold | Drop in MIC in Δ3-Pore cells with increasing inducer ([2]; IPTG (FIG. 5)): 64 fold | Fold MIC change, Efflux, PAO1-Pore/Δ3-Pore [2]: 64 fold | Fold MIC change, Efflux, PAO1/Δ3 [2]: 32 fold | Fold MIC change, OM barrier, PAO1/PAO1-Pore [2]: 32 fold | Fold MIC change, OM barrier, Δ3/Δ3-Pore [2]: 64 fold | MIC GD102 (ΔTolC) — (E. coli GD102 (ΔTolC)): 0.5 µg/mL (≈ 0.668 µM) | MIC GD102 (ΔTolC) Pore [4]: 0.031 µg/mL (≈ 0.0414 µM) | MIC Δ3 — [5]: 4 µg/mL (≈ 5.34 µM) | MIC (E. coli BW 25113 (WT)): 2 µg/mL (≈ 2.67 µM) | MIC [6]: 0.5 µg/mL (≈ 0.668 µM) | MIC (P. aeruginosa PAO1 [7]; [10]): 128 µg/mL | MIC (P. aeruginosa PAO1 [7]; PAO1, read-out: MIC in P. aeruginosa PAO1 cells): 171 µM | MIC Δ3 Pore [8]: 0.063 µg/mL (≈ 0.0841 µM) | MIC in P. aeruginosa Δ3-Pore cells ([8]; induced, plateau with increasing IPTG (FIG. 5)): 0.083 µM (≈ 0.0622 µg/mL) | Accumulation of azithromycin in permeabilized PAO1-Pore and Δ3-Pore cells [9]: significantly higher than PAO1 and Δ3 cells
